Measurements taken from PMC3765824, “Trough colistin plasma level is an independent risk factor for nephrotoxicity: a prospective observational cohort study” (BMC Infectious Diseases, 2013).
Like-named read-outs stand apart in the source and are kept apart here. Bridge positions count the residues as written; N and C are the ends. Square brackets hold non-standard residues; d marks the D form. Peptide text beside a SMILES is read from it. * marks the point of attachment. X1 = CC[C@H](C)CCCCC(=O)*; Dab = NCC[C@H](N)C(=O)O

What was measured:
[1] = Colistin plasma concentrations at steady state (HPLC); assay type: in vivo, patients; conditions: human; for Cmax: intravenous; for level at 72 h: iv
Method: Evaluation of the colistin concentration in plasma was performed after 3 days of treatment, when the colistin concentrations had reached steady state. The samples were immediately centrifuged (3000 g for 10 minutes) and the plasma was stored at −80°C until analysis. Colistin plasma trough concentrations (Cmin) were measured just before the next dose. Maximum plasma concentrations (Cmax) were taken 30 minutes after the end of the CMS infusion (1 h after the start of infusion).
Colistin concentrations in plasma were determined using a validated high-performance liquid chromatography (HPLC) method as described by Li et al., with minor modifications. After protein precipitation, the samples were centrifuged (14000 g, 5 min) and the supernatant transferred to solid phase extraction (SPE) C18 cartridges (Sep-Pak, Waters, Milford, MA, USA), in which derivation with 9-fluorenylmethyl chloroformate (FMOC-Cl) was performed. Elution of the fluorescence derivatives was performed with acetone mixed with acetonitrile and boric acid. Finally, 20 μl of the mixture was injected into the HPLC. The HPLC system was made up of Waters equipment that included a Waters 2475 multi-λ Fluorescence Detector, a Waters 1525 binary pump with column heater, a Waters degasser, and a Waters 717 autoinjector sampler. The stationary phase was a Waters SunFire column C18, 4.6 × […], 5 μm. The mobile phase was a mixture of acetonitrile, tetrahydrofuran and water delivered at an isocratic flux of 1 mL/min. The chromatogram run time was 20 minutes and the detector setting was excitation wavelength 260 nm and emission wavelength 315 nm. The concentrations of colistin were calculated by multiplying the obtained colistin sulfate plasma concentrations by 1163/1403 (1163 being the average molecular weight of colistin A and B, which are the greater part of the products, and 1403 the average molecular weight of colistin sulfate). The colistin plasma concentration in each patient was calculated as the sum of colistin A and B, the two main components. Calibration curves were linear in the range 0.1-8 mcg/ml and the accuracy quality control samples varied from 90–110 % of the nominal concentration for intraday and interday analysis, with a precision (CV%) of 10% or less. The limit of quantification was 0.1 mcg/ml and the limit of detection was 0.05 mcg/mL.

[2] = tested on: patients receiving intravenous colistin methanesulfonate sodium (CMS); assay: Colistin-associated nephrotoxicity: AKI by RIFLE criteria during CMS treatment; assay type: in vivo; conditions: for N° (%) of patients fulfilling criterion: ESKD (E) / N° (%) of patients fulfilling criterion: Failure (F) / N° (%) of patients fulfilling criterion: Injury (I) / N° (%) of patients fulfilling criterion: Loss (L) / N° (%) of patients fulfilling criterion: No injury / N° (%) of patients fulfilling criterion: Risk (R): RIFLE
Method: (§1) This prospective observational study was performed at a 400-bed acute-care university hospital in Barcelona, Spain. A pharmacy-generated alarm system was used to identify patients on CMS treatment for therapy of infections caused by MDR-GNB. From January 2010 to June 2011, patients (>18 years) were included if they had received colistin methanesulfonate sodium (CMS) for at least 4 days. Patients were excluded if they were receiving renal replacement therapy prior to the initiation of CMS.
CMS for injection was used and dosed in millions of international units (IU) throughout the study. The drug was administered intravenously in 100 mL normal saline over 30 minutes in the commercially available colistimethate formulation for injection (GES Genéricos Españoles ®), with each vial containing 80 mg CMS (equivalent to 1 million international units of CMS). Dose selection was based on the individual criteria of the responsible clinicians, who were not aware that this study was being performed. Although there were some dose adjustments based on baseline renal function, common colistin doses ranged from 1 to 3 million international units (IU) every 8 hours (3–9 million IU daily). Dose adjustments were made according to the package insert’s recommended dosing as follows: GFR ≥ 76 mL/min/1.73 m^2, 4–6 million IU daily in three doses; GFR 40 to 75 mL/min/1.73 m^2, 2–3 million IU daily in 2 doses; GFR 25 to 40 mL/min/1.73 m^2, 1.5-2 million IU daily divided in 1 or 2 doses and; GFR < 25 mL/min/1.73 m^2 , 0.6-1 million of IU daily every 36 hours.
Serum creatinine level and estimated glomerular filtration rate (GFR) were recorded at baseline, on day 7 and at the end of treatment (EOT). We chose these set points because blood tests are done routinely for all inpatients at least once a week and at the end of treatment. The abbreviated Modification of Diet in the Renal Disease Equation (MDRD-4) was used to calculate GFR. Chronic kidney disease (CKD) at baseline was considered if GFR was < 60 mL/min/1.73 m^2 for ≥ 3 months. Patients with increased creatinine (> 1.4 mg/dL) or GFR < 90 mL/min/1.73 m^2 at admission and no prior data regarding chronicity were considered as having acute renal failure due to any cause. The RIFLE criteria (risk, injury, failure, loss, and end-stage kidney disease), estimated with exclusion of the urinary output criterion, were used for detection and stratification of AKI [14] (Table 1). AKI during CMS treatment was defined as a 1.5-fold or more increase in serum creatinine and/or a decrease in the GFR of 25% or more. These criteria needed to be fulfilled for at least 2 consecutive determinations 24 hours apart, after ≥ 4 days of CMS therapy. Patients who developed AKI were followed up for a period of 30 days after the end of CMS treatment to evaluate the reversibility of this toxicity. Patients who died or had no data during this period were excluded from this analysis.
Multivariate analysis of risk factors for colistin nephrotoxicity was constructed by using logistic regression. Univariate analyses were performed separately for each of the risk factor variables to ascertain the odds ratio and 95% confidence interval (CI). All clinically important covariates and those with a P value < 0.2 in the univariate analyses were included in the multivariate analysis. Since Cmax and Cmin values were almost equal, only one of these variables was included in the model.
The ROC curve was used to identify a categorical breakpoint for Cmin that would better identify patients who develop acute kidney injury (AKI) on day 7 and at the end of treatment. For all analyses, a two-sided P value < 0.05 was considered to be statistically significant. The Statistical Package for the Social Sciences (SPSS, version 15.0) was used for statistical analysis.

[3] = tested on: infections caused by MDR-GNB; assay: Clinical response to CMS treatment; assay type: in vivo, patients
Method: as §1
Data on demographic characteristics including age, gender, body weight, size, and body mass index were collected. Data on the indication for CMS, the administration schedule, the daily CMS dose recorded as millions of IU, the total cumulative CMS dose (millions of IU), and the duration of treatment were collected. Other data recorded included the presence of CKD at baseline, the Charlson score, the severity of disease at the time of the first CMS dose stratified according to the Acute Physiology and the Chronic Health Evaluation (APACHE) II [16]. The concomitant use of aminoglycosides, vancomycin, angiotensin II receptor blockers, angiotensin-converting enzyme inhibitors, loop diuretics, intravenous dye, amphotericin B, non-steroidal anti-inflammatory drugs (NSAIDs), the need for vasopressor drugs, and discontinuation of CMS treatment because of AKI were also recorded. The patient’s clinical status at the beginning of CMS treatment was defined as infection, severe sepsis and shock, according to the standard definition. Clinical response was defined as the resolution of signs, symptoms, and laboratory parameters that defined infection for each patient. The 30-day all-cause mortality was also recorded.

[4] = tested on: patients receiving intravenous colistin methanesulfonate sodium (CMS); assay: 30-day all-cause mortality; assay type: in vivo; conditions: 102 patients on iv CMS
Source text: Data on demographic characteristics including age, gender, body weight, size, and body mass index were collected. Data on the indication for CMS, the administration schedule, the daily CMS dose recorded as millions of IU, the total cumulative CMS dose (millions of IU), and the duration of treatment were collected. Other data recorded included the presence of CKD at baseline, the Charlson score, the severity of disease at the time of the first CMS dose stratified according to the Acute Physiology and the Chronic Health Evaluation (APACHE) II [16]. The concomitant use of aminoglycosides, vancomycin, angiotensin II receptor blockers, angiotensin-converting enzyme inhibitors, loop diuretics, intravenous dye, amphotericin B, non-steroidal anti-inflammatory drugs (NSAIDs), the need for vasopressor drugs, and discontinuation of CMS treatment because of AKI were also recorded. The patient’s clinical status at the beginning of CMS treatment was defined as infection, severe sepsis and shock, according to the standard definition. Clinical response was defined as the resolution of signs, symptoms, and laboratory parameters that defined infection for each patient. The 30-day all-cause mortality was also recorded. […]

[5] = % of the 26 patients with nephrotoxicity at day 7
[6] = End of treatment, multivariate logistic regression

CC[C@H](C)CCCCC(=O)N[C@@H](CCN)C(=O)N[C@H](C(=O)N[C@@H](CCN)C(=O)N[C@H]1CCNC(=O)[C@H]([C@@H](C)O)NC(=O)[C@H](CCN)NC(=O)[C@H](CCN)NC(=O)[C@H](CC(C)C)NC(=O)[C@@H](CC(C)C)NC(=O)[C@H](CCN)NC1=O)[C@@H](C)O [colistin] (X1-[Dab]T[Dab][Dab][Dab][dL]L[Dab][Dab]T; lactam 4-C)
Cmax ([1]; 1 million IU/8 h, CMS 1 million IU/8 h (n = 28), steady state, 30 min after infusion, median (interquartile range), read-out: Cmax): 650 ng/mL | Cmax ([1]; 2 million IU/8 h, CMS 2 million IU/8 h (n = 42), steady state, 30 min after infusion, median (interquartile range), read-out: Cmax): 1130 ng/mL | Cmax ([1]; 3 million IU/8 h, CMS 3 million IU/8 h (n = 16), steady state, 30 min after infusion, median (interquartile range), read-out: Cmax): 1840 ng/mL | Cmax ([1]; CMS other doses (n = 16), steady state, 30 min after infusion, median (interquartile range), read-out: Cmax): 1500 ng/mL | Cmax ([1]; first value of pair, taken as patients without acute renal failure at baseline, read-out: Peak colistin plasma level): 1000 ng/mL | Cmax ([1]; second value of pair, taken as patients with acute renal failure at baseline, read-out: Peak colistin plasma level): 1820 ng/mL | level at 72 h ([1]; 1 million IU/8 h, CMS 1 million IU/8 h (n = 28), steady state trough, median (interquartile range), read-out: Cmin): 710 ng/mL | level at 72 h ([1]; 2 million IU/8 h, CMS 2 million IU/8 h (n = 42), steady state trough, median (interquartile range), read-out: Cmin): 1140 ng/mL | level at 72 h ([1]; 3 million IU/8 h, CMS 3 million IU/8 h (n = 16), steady state trough, median (interquartile range), read-out: Cmin): 1840 ng/mL | level at 72 h ([1]; CMS other doses (n = 16), steady state trough, median (interquartile range), read-out: Cmin): 1500 ng/mL | level at 72 h ([1]; first value of pair, taken as patients without acute renal failure at baseline, read-out: Trough colistin plasma level): 860 ng/mL | level at 72 h ([1]; second value of pair, taken as patients with acute renal failure at baseline, read-out: Trough colistin plasma level): 1790 ng/mL

colistin methanesulfonate sodium [CMS]
Patients who developed AKI needing renal replacement therapy ([2]; 53 patients with AKI): None | Nephrotoxicity at day 7: F (Failure) [2, 5]: 2 (7.6) n (%) | Nephrotoxicity at day 7: I (Injury) [2, 5]: 8 (30.7) n (%) | Nephrotoxicity at day 7: R (Risk) [2, 5]: 16 (61.5) n (%) | Nephrotoxicity at the end of treatment: I (Injury) ([2]; % of the 50 patients with nephrotoxicity at EOT): 23(46) n (%) | AKI at EOT ([2]; CMS 1 million IU/8 h (n = 28)): 14 (50) n (%) | AKI at day 7 ([2]; CMS 1 million IU/8 h (n = 28)): 5 (17.9) n (%) | AKI at EOT ([2]; CMS 2 million IU/8 h (n = 42)): 21 (50) n (%) | AKI at day 7 ([2]; CMS 2 million IU/8 h (n = 42)): 11 (26.2) n (%) | AKI at EOT ([2]; CMS 3 million IU/8 h (n = 16)): 9 (56.3) n (%) | AKI at day 7 ([2]; CMS 3 million IU/8 h (n = 16)): 7 (43.8) n (%) | AKI at EOT ([2]; CMS other doses (n = 16)): 6 (37.5) n (%) | AKI at day 7 ([2]; CMS other doses (n = 16)): 3 (18.8) n (%) | N° (%) of patients fulfilling criterion: ESKD (E) ([2]; Day 7 (n = 102)): 0 (0) N° (%) | N° (%) of patients fulfilling criterion: Failure (F) ([2]; Day 7 (n = 102)): 2 (2) N° (%) | N° (%) of patients fulfilling criterion: Injury (I) ([2]; Day 7 (n = 102)): 8 (7.8) N° (%) | N° (%) of patients fulfilling criterion: Loss (L) ([2]; Day 7 (n = 102)): 0 (0) N° (%) | N° (%) of patients fulfilling criterion: No injury ([2]; Day 7 (n = 102)): 76 (74.5) N° (%) | N° (%) of patients fulfilling criterion: Risk (R) ([2]; Day 7 (n = 102)): 16 (15.7) N° (%) | Odds ratio (95% CI) of CMS cumulative dose at day 7 for nephrotoxicity ([2]; Day 7, multivariate logistic regression): 0.99 (0.94-1.04) | N° (%) of patients fulfilling criterion: ESKD (E) ([2]; EOT (n = 102)): 0 (0) N° (%) | N° (%) of patients fulfilling criterion: Failure (F) ([2]; EOT (n = 102)): 13 (12.7) N° (%) | N° (%) of patients fulfilling criterion: Injury (I) ([2]; EOT (n = 102)): 23 (22.5) N° (%) | N° (%) of patients fulfilling criterion: Loss (L) ([2]; EOT (n = 102)): 0 (0) N° (%) | N° (%) of patients fulfilling criterion: No injury ([2]; EOT (n = 102)): 52 (51) N° (%) | N° (%) of patients fulfilling criterion: Risk (R) ([2]; EOT (n = 102)): 14 (13.7) N° (%) | Odds ratio (95% CI) of CMS cumulative dose for nephrotoxicity [2, 6]: 0.99 (0.98-1) | Odds ratio (95% CI) of CMS duration treatment for nephrotoxicity [2, 6]: 1.03 (0.98-1.08) | Patients with nephrotoxicity at day 7 ([2]; n=102, RIFLE criteria): 26 (25.5) n (%) | Patients with nephrotoxicity at the end of treatment ([2]; n=102, RIFLE criteria): 50 (49) n (%) | Clinical response ([3]; CMS 1 million IU/8 h (n = 28)): 25 (89.3) n (%) | Clinical response ([3]; CMS 2 million IU/8 h (n = 42)): 32 (76.2) n (%) | Clinical response ([3]; CMS 3 million IU/8 h (n = 16)): 11 (68.8) n (%) | Clinical response ([3]; CMS other doses (n = 16)): 11 (68.8) n (%) | Clinical response ([3]; all included patients n=102): 79 (77.5) n (%) | 30-day all-cause mortality rate [4]: 32.4%
